Results published in US11590453B2, “Membrane disinfectant” (Diversey, Inc., priority 2017, dated 2023).

Test: pH of test solutions
Assay type: physicochemical

Measured: pH

O=[N+]([O-])O [Nitric Acid Solution, Nitric Acid]
2.00: solution of membrane compatibility test, Table 6 | solution of membrane compatibility test, Table 8 | solution of salt retention test, Table 7
